Measured values from US20250213700A1, “COMPOUNDS, COMPOSITIONS, AND METHODS FOR CELL-SPECIFIC PHARMACOLOGY” (Duke University, priority 2022, published 2025).
Read-outs that look alike come from different tables or passages of the source.

Columns and labels:
GABAAR [1] = assay: whole-mount retina, GABAAR-mediated evoked IPSC in retinal ganglion cells; format: cell-based, mouse; details: 300 nM, 15 min
Experimental: (FIG. 6A) Viral strategy (top panel). […] Experimental overview (second panel from the top to bottom panel). Top: whole retina; synaptic current is evoked (stim) and recorded (voltage-clamp of dTomato+ RGC), with ionic and pharmaceutical conditions chosen to isolate the AMPAR or GABAAR. A 10 min baseline is followed by 15 min application of 300 nM Rx^DART.2+30 nM Alexa^647.1DART.2. […] (FIG. 6B) CMPDA.2^DART.2 (left). Electropositive spacer (PDB 3RNN). […] AMPAR structural model (middle) (composite of PDB 5WEO, 3RNN, and 1FTL). Cylinder depicts cell membrane. […] YM90K.1^DART.2 (right). Structural model (PDB 1FTL). […] (FIG. 6C) diazepam.1^DART.2 (left). Structural model (PDB 6HUP). […] GABAAR (middle) structural model (composite of PDB 6HUP and 6HUK). […] Structural model (PDB 6HUK).
Preparation of Retina: Mice were intravitreal injected AAV10 HaloTag™-dTomato to eyes. After 8-12 weeks, the mice killed by cervical dislocation. Both eyes were removed and dissected under a stereo-microscope. Retinas were isolated from the eyecups and placed in oxygenated (95% O2/5% CO2) cold-Ames medium (Sigma-Aldrich), supplemented with 21 mM NaHCO3. After the vitreous body was removed, a retina was cut into 3 pieces, leaving each retina piece attached to a filter paper with 2 mm hole by retina ganglion-cell-side-down. The pieces of retina were stored in bubbled Ames solution at room temperature, then transferred to recording chamber with retina ganglion-cell-side-up for recording.
Whole-cell patch-clamp recording: The brain slices or retinas were perfused with bubbled aCSF at 29-30° C. with a 2 ml/min flow rate. Recordings were made by whole cell patch recording techniques using a Multiclamp 700B amplifier (Molecular Devices, Axon Instruments Inc., Union City, CA). The signals were filtered at 10 KHz and acquired using Digitate 1440A and pClamp 10.7 (Molecular Devices). The recording pipettes (4 MΩ-6 MΩ) were filled with internal solutions. For GABAA receptor-mediated evoked inhibitory postsynaptic currents ([…]) recording, the pipettes filled with Cesium Chloride-based internal solution (in mM) 135 CsCl, 2 MgCl2, 0.5 EGTA, 10 HEPES, 4 Mg-ATP, 0.5 Na-GTP, 10 Na2-phosphocreatine, and QX314 (lidocaine N-ethyl bromide), pH adjusted to 7.3 with CsOH (290 mosm). For AMPA-receptor mediated evoked excitatory postsynaptic currents (eEPSCs) recording, the pipette solution contained (in mM) 130 CsMeS, 1 MgCl2, 0.5 EGTA, 10 HEPES, 4 Mg-ATP, 0.5 Na-GTP, 10 Na2-phosphocreatine, and 4 QX314, pH adjusted to 7.3 with CsOH (290 mosm). For experiment of brain slices and retinas, the eIPSCs or eEPSCs were elicited by electrical stimuli at 0.067 Hz in 0.3-ms duration and 150-300-ρA (60-70% maximum responses) stimulation intensity at a holding potential of −70 mV. The stimulating electrode was placed within 60-100 μm from the recording neuron under voltage-clamp mode. GABA-receptor mediated eIPSCs were isolated in the presence of DNQX ([…] AMPAR antagonist) and AP-V ([…] antagonist) in the bath solution. For AMPA-receptor mediated eEPSCs, added picrotoxin ([…], GABAAR antagonist) and AP-V ([…]) to the bath solution.

endogenous GABAAR = assay: all-optical assay of GABAAR positive allosteric modulation in primary neuronal culture; format: cell-based, rat
Experimental: (§1) Cultured neuronal assays: Preparation of hippocampal cultures: Mixed glial and neuronal cultures were prepared from the hippocampus of postnatal day 0 to 1 Sprague-Dawley rat pups. Separate pools of dissociated cells were transfected via electroporation (LONZA, V4SP-3096) with plasmid constructs, and depending on assay directives, either plated individually or mixed with a different pool of electroporated cells after a 10 min recovery period. Cells were cultured on coverslips (Deckglaser) pre-treated with high molecular weight poly-D-lysine (Sigma, P7405; 0.05 mg/mL) in 24-well plates and maintained in NbActiv4 (BrainBits, Nb4-500) at 37 C, 5% CO2. Media was changed by half at DIV3 or 4 and then weekly thereafter; experiments were performed between DIV16 to DIV18.
Diazepam/Flumazenil: Dissociated neurons were electroporated with constructs and cultured for 2 weeks. The assay was performed in a modified GABAR-BASE, with an increased KCl concentration to enhance neuronal excitability and a lowered GABA level for a baseline. Again, a DRUG plate and three DoseGroups were used as described above for dosing, but no final WASH. […] Imaging alignment, proof-reading and analysis were performed in a similar fashion to the GABAR assay using MatLab.
Next it was sought to extend DART to allosteric modulators. The allosteric binding site of the GABAAR, known to bind several drugs, with effects ranging from negative to positive allosteric modulation was first analyzed. Diazepam represents the prototypic PAM at this site, and is the most clinically significant of the class. Thus, a diazepam analog was synthesized with a short alkyne attached to the amide of the diazepam core; an attachment site known to tolerate substituents and thought from structural inspection of the GABAAR-bound diazepam pose to allow linker access to free solution. Click chemistry was used to assemble the full-length diazepam.1DART.2 and leveraged an all-optical assay of endogenous GABAARs in primary neuronal culture, with ChR2 and GCaMP6s in the same cell.

cerebellar granule cells = assay: in vivo two-photon GCaMP imaging of cerebellar granule cells; parameters: species or system mouse; details: local infusion, 1 μL of 1 μM
Excerpt: (§2) (FIG. 4A) Validation of gabazine.1^DART.2 in cerebellar slice. Top: voltage-clamp schematic. Bottom: tonic GABAAR in granule cells expressing ^+HTP or ^ddHTP. […] Data are mean±SEM, cells normalized to baseline. (FIG. 4B) In vivo delivery of gabazine.1^DART.2 to cerebellar granule cells. Top right: schematic of experimental approach, GCaMP6f granule-cell activity obtained in the absence of sensory stimuli. Top left: example field of view, GCaMP6f signal averaged across trials. Bottom: example calcium traces (ΔF/F) in an awake ^+HTP mouse before (baseline) and after (1 μL of 1 μM gabazine.1^DART.2) infusion. (FIG. 4C) In vivo, 1 μL of 1 μM gabazine.1^DART.2 to ^+HTP mice. Color indicates ΔF/F, each row is one cell before (left) and after (right) gabazine.1^DART.2 infusion. […] (FIG. 4D) In vivo, 1 μL of 1 μM gabazine.1^DART.2 to ^ddHTP mice. Format as in panel C. […] (FIG. 4E) Validation of gabazine.7^DART.2 in VTA slice. Top: evoked-IPSC configuration. […] Data are mean±SEM, cells normalized to baseline. […] Data are mean±SEM, normalized to baseline speed of each animal.
Next, the feasibility of using DART.2 for GABAAR antagonism in live mice was explored. […] Whether this sparsity results from low excitatory drive, or high inhibitory GABAAR tone, has been difficult to address with prior tools. […]

GABAAR [2] = assay: cerebellar slice voltage-clamp, tonic GABAAR current in granule cells; format: cell-based, mouse
Excerpt: as §2
Next, the feasibility of using DART.2 for GABAAR antagonism in live mice was explored. […] Whether this sparsity results from low excitatory drive, or high inhibitory GABAAR tone, has been difficult to address with prior tools. For example, one may attempt to reduce inhibition onto granule cells by silencing local GABA-producing neurons [golgi cells]. However, this would disinhibit local excitatory neurons [unipolar brush cells]. Thus the approach would inadvertently elevate excitatory drive onto granule cells, concomitant with the desired goal of reducing their inhibition, confounding interpretation. […] AAV DIO ^+HTPGPI or AAV DIO ^ddHTPGPI were expressed along with GCaMPxx in xxx-Cre mice; 2p. […] Next, in vivo experiments, using two-photon imaging of granule cells were performed.

endogenous GABAARs = assay: all-optical assay of GABAAR antagonism in primary neuronal culture; format: cell-based, rat
Experimental: as §1
Gabazine: Dissociated neurons were electroporated with constructs and cultured for 2 weeks. The assay was performed in the same BASE solution as described above, but with the addition of synaptic blockers CPP (NMDAR antagonist; Tocris) and NBQX (AMPAR antagonist; Abcam, ab120046) to isolate GABAR activity, and a small amount of GABA (GABAR agonist; Sigma) to ensure GABAR activity (=GABAR-BASE). […] Instead, a high dose of regular gabazine was used to completely silence any cells that may not have had realized full antagonism by the end of the assay. Imaging alignment, proof-reading and analysis were performed in a similar fashion to the AMPAR assay using MatLab.
It was next focused on blocking the GABAAR, a ubiquitous transducer of synaptic inhibition. […] The structure-activity literature of gabazine, a selective GABAAR antagonist, was explored. The core gabazine pharmacophore includes of a 3-amino, 6-phenoxy-pyridazine ring, with GABA embedded in the 2-position (2 butyric acid). Based on historical, low-potency predecessors of gabazine, a longer GABA moiety (2 pentanoic acid), and methyl substituents (e.g., 5-CH3) were explored (FIG. 2F). For each variant, the 6-phenoxy moiety was modified to make a gabazinealkyne module, which was click-conjugated to DART.2. Several variants were made, including gabazine.1^DART.2 (2 butyric acid, 5-H), gabazine.5DART.2 (2 pentanoic acid, 5-H), and gabazine.7DART.2 (2 pentanoic acid, 5-CH3). An all-optical assay of endogenous GABAARs in primary neuronal culture was then developed. […] Excitatory synapses were blocked, such that opto-stimulation with ChR2 became the only source of neural excitation.

endogenous AMPARs = assay: all-optical cultured-neuron assay of AMPAR-dependent synaptic transmission; format: cell-based, rat; details: DW=Rx50/HTL50; ddHTP vs +HTP cells, 15 min
Experimental: as §1

`COc1cc(CCCCl)ccc1CCOCCNC(=O)c1ccc(CNC(=O)CCOCCOCCOCCOCCOCCOCCOCCOCCOCCOCCOCCOCCOCCOCCOCCOCCOCCOCCOCCOCCOCCOCCOCCOCCOCCOCCOCCOCCOCCOCCOCCOCCOCCOCCOCCOCCn2cc(COCCOCCOCCOCCOCCOCCN3C(=O)CN=C(c4ccccc4)c4cc(Cl)ccc43)nn2)cc1` [diazepam.1DART.2, 1-(4-(19-(7-chloro-2-oxo-5-phenyl-2,3-dihydro-1H-benzo[e][1,4]diazepin-1-yl)-2,5,8, 11, 14, 17-hexaoxanonadecyl)-1H-1,2,3-triazol-1-yl)-N-(4-((2-(4-(3-chloropropyl)-2-methoxyphenethoxy)ethyl)carbamoyl)benzyl)-3,6,9,12, 15, 18,21,24,27, 30, 33, 36, 39, 42, 45, 48, 51, 54, 57, 60, 63, 66, 69, 72, 75, 78, 81, 84, 87, 90, 93, 96, 99, 102, 105, 108-hexatriacontaoxaundecahectan-111-amide] was tested, and the “GABAAR evoked IPSC integral (total charge transfer) boost, +HTP cells” value (GABAAR [1]) was 2 fold, the “GABAAR evoked IPSC, ddHTP cells” value (GABAAR [1]) was “no effect on ddHTP RGCs” and the “GABAAR-mediated IPSC potentiation, +HTP RGCs” value (GABAAR [1]) was “significantly potentiated IPSCs”. The “GABAAR evoked IPSC, ddHTP cells” value (GABAAR [1]; listed as diazepam.1^DART.2) was “not ^ddHTP cells”, the “DW (t=15 m)” value (endogenous GABAAR; Rx50/HTL50) was about 750 and the EC50 (endogenous GABAAR; read-out: HTL50 (t=15 m), +HTP neurons, 15 min) was 40 nM. It also gave an EC50 (endogenous GABAAR; read-out: Rx50, ddHTP neurons, 5 µM GABA) of 30000 nM.
`COc1cc(CCCCl)ccc1CCOCCNC(=O)c1ccc(CNC(=O)CCOCCOCCOCCOCCOCCOCCOCCOCCOCCOCCOCCOCCOCCOCCOCCOCCOCCOCCOCCOCCOCCOCCOCCOCCOCCOCCOCCOCCOCCOCCOCCOCCOCCOCCOCCOCCn2cc(COCCOCCOCCOCCOCCOCCOCCCCCCOc3ccc(-c4ccc(=N)n(CCCC(=O)O)n4)cc3)nn2)cc1` [gabazine.1DART.2] was tested, and the “GCaMP signals, ddHTP mice” value (cerebellar granule cells) was “no impact on GCaMP signals”, the “granule cell activity, +HTP mice” value (cerebellar granule cells) was “pronounced increase in +HTP granule cell activity” and the “tonic GABAAR current, +HTP granule cells” value (GABAAR [2]; 100 nM) was “antagonizes the GABAAR in ^+HTP”. The HTL50 (half-maximal tethering concentration at 15 min) (GABAAR [2]; +HTP cells, tonic GABAAR current, read-out: HTL50 (t=15 m)) was about 50 nM, the IC50 (GABAAR [2]; read-out: Rx50, ddHTP cells, tonic GABAAR current) was about 1000 nM and the “DW (t=15 m)” value (endogenous GABAARs; ddHTP vs +HTP cells, 15 min, 15 uM GABA) was 500. The “GABAAR evoked IPSC block, +HTP cells” value (GABAAR [1]) was “blocked the GABAAR-mediated IPSC”, the “GABAAR evoked IPSC, ddHTP cells” value (GABAAR [1]) was “not on ^ddHTP cells” and the “GABAAR evoked IPSC block, +HTP cells” value (GABAAR [1]; listed as gabazine.1^DART.2) was “blocked on ^+HTP cells”.
With `O=C(CCCn1c(=O)c(=O)[nH]c2cc([N+](=O)[O-])c(-n3ccnc3)cc21)NCCOCCOCCOCCOCCOCCOCc1cn(CCOCCOCCOCCOCCOCCOCCOCCOCCOCCOCCOCCOCCOCCOCCOCCOCCOCCOCCOCCOCCOCCOCCOCCOCCOCCOCCOCCOCCOCCOCCOCCOCCOCCOCCOCCOCCC(=O)NCCOCCOCCCCCCCl)nn1` [YM90K.1DART.1, 1-(4-(24-(7-(1H-imidazol-1-yl)-6-nitro-2,3-dioxo-3,4-dihydroquinoxalin-1 (2H)-yl)-21-oxo-2,5,8, 11, 14, 17-hexaoxa-20-azatetracosyl)-1H-1,2,3-triazol-1-yl)-N-(2-(2-((6-chlorohexyl)oxy)ethoxy)ethyl)-3,6,9, 12, 15, 18, 21, 24, 27, 30, 33, 36, 39, 42, 45, 48, 51, 54, 57, 60, 63, 66, 69, 72, 75, 78, 81, 84, 87, 90, 93, 96, 99, 102, 105, 108-hexatriacontaoxaundecahectan-111-amide] the “DW (t=15 m)” value (endogenous AMPARs) was 30.
For `COc1ccc(-c2ccc(=N)n(CCCC(=O)O)n2)cc1` [gabazine, reference compound], the “GABAAR current after subsequent application” value (GABAAR [2]; traditional gabazine) was “blocks all GABAAR current” and the “effect on +HTP vs ddHTP cells” value (endogenous GABAARs; traditional (non-DART) version) was “equally affected”.
